How the values were obtained:
[1] = tested on: cAMY1R; experiment: Species-specific cAMP assay, cAMY1R
[2] = target: T1, mCTR (Mus musculus, UniProt Q60755); experiment: Mouse receptor cAMP HTRF assay (BacMam, HeLa), mCTR
T1 sequence (Q60755 42-496 isoform Q60755-2 limits assumed): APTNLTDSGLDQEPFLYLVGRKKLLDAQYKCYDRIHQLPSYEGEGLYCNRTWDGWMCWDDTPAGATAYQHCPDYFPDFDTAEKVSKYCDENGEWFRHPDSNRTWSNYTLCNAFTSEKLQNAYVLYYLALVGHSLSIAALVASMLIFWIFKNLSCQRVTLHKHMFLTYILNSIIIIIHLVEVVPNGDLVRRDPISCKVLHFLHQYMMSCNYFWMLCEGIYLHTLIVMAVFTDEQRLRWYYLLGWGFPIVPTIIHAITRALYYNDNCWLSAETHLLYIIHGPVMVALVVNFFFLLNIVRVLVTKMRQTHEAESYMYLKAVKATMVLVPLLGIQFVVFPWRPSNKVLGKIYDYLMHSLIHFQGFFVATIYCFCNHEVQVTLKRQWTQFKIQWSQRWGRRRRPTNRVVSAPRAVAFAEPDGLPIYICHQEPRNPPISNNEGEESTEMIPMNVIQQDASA

[3] = tested on: cAMY1R; experiment: Whole-cell competition binding, cAMY1R; conditions: IC50 for the CTR divided by that of the AMYR, canine receptors
[4] = tested on: cAMY3R; experiment: Species-specific cAMP assay, cAMY3R
[5] = tested on: cAMY3R; experiment: Whole-cell competition binding, cAMY3R; conditions: IC50 for the CTR divided by that of the AMYR, canine receptors
[6] = cited from earlier work
Excerpt: The major chemical degradation products of pramlintide have been identified to include deamidation and isomerization of asparagine residues in positions 3, 21, and 22 and to a lesser degree in positions 14 and 35.[22] Reduction of these deamidation reactions in pramlintide has been obtained by acidic formulation.[23]

[7] = tested on: cCTR; experiment: Species-specific cAMP assay, cCTR; conditions: cAMP HTRF, transiently transfected BHK cells, 30 min room temperature, five experiments
[8] = target: T2, mAMY3R (Mus musculus, UniProt Q60755+Q9WUP1); experiment: Mouse receptor cAMP HTRF assay (BacMam, HeLa), mAMY3R; conditions: ratio of cAMP EC50 values, mouse receptors
T2 sequence (Q60755 42-496 isoform Q60755-2 limits assumed): T1 sequence (Q60755 42-496 isoform Q60755-2 limits assumed)
T2 sequence (Q9WUP1 24-147 partner limits assumed): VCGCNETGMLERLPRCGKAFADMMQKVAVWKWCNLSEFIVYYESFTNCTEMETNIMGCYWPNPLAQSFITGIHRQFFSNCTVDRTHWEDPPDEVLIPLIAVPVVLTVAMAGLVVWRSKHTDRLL

[9] = cAMP HTRF, transiently transfected BHK cells, 30 min room temperature, five experiments
[10] = ratio of cAMP EC50 values, canine receptors

cAMY1R pEC50 [1, 9]: 10.77
EC50 [2]: 3.09 nM
cAMY3R pEC50 [4, 9]: 10.88
cCTR pEC50 [7]: 10.90
Ratio CTR/AMY3R (mouse, functional) [8]: 8
SMILES: CC[C@H](C)[C@H](NC(=O)[C@@H]1CCCN1C(=O)CNC(=O)[C@H](Cc1ccccc1)NC(=O)[C@H](CC(N)=O)NC(=O)[C@H](CC(N)=O)NC(=O)[C@H](CO)NC(=O)[C@H](CO)NC(=O)[C@H](Cc1c[nH]cn1)NC(=O)[C@@H](NC(=O)[C@H](CC(C)C)NC(=O)[C@H](Cc1ccccc1)NC(=O)[C@H](CC(N)=O)NC(=O)[C@H](C)NC(=O)[C@H](CC(C)C)NC(=O)[C@H](CCCNC(=N)N)NC(=O)[C@H](CCC(N)=O)NC(=O)[C@@H](NC(=O)[C@H](C)NC(=O)[C@@H]1CSSC[C@H](NC(=O)[C@@H](N)CCCCN)C(=O)N[C@@H](CC(N)=O)C(=O)N[C@@H]([C@@H](C)O)C(=O)N[C@@H](C)C(=O)N[C@@H]([C@@H](C)O)C(=O)N1)[C@@H](C)O)C(C)C)C(=O)N[C@@H](CC(C)C)C(=O)N1CCC[C@H]1C(=O)N1CCC[C@H]1C(=O)N[C@H](C(=O)N[C@@H](CC(N)=O)C(=O)N[C@H](C(=O)NCC(=O)N[C@@H](CO)C(=O)N[C@@H](CC(N)=O)C(=O)N[C@H](C(=O)N[C@@H](Cc1ccc(O)cc1)C(N)=O)[C@@H](C)O)C(C)C)[C@@H](C)O [pramlintide, reference compound]
Ratio CTR/AMY1R (canine, functional) [1, 10]: 1
Ratio CTR/AMY1R (canine, binding) [3]: 67
Ratio CTR/AMY3R (canine, functional) [4, 10]: 1
Ratio CTR/AMY3R (canine, binding) [5]: 112
half-life in plasma [6]: 30 to 50 min

Source: paper PMC11284788, “NN1213 – A Potent, Long-Acting, and Selective Analog of Human Amylin” (Journal of Medicinal Chemistry, 2024)
